Source: ChEMBL document CHEMBL4706632, “Development of Potential Antitumor Agents from the Scaffolds of Plant-Derived Terpenoid Lactones” (J Med Chem, 2020)
One block for each molecule: values may come before it.

Assays:
MCF7 [1] = experiment: Antiproliferative activity against human MCF7 cells incubated for 48 hrs by [3H]-thymidine incorporation assay; assay type: functional, cell-based
SW480 = experiment: Antiproliferative activity against human SW480 cells incubated for 72 hrs by MTT assay; assay type: functional, cell-based; settings: SW480, 72 h
MDA-MB-435 = experiment: Antiproliferative activity against human MDA-MB-435 cells incubated for 48 hrs by [3H]-thymidine incorporation assay; assay type: functional, cell-based
XF498 = experiment: Cytotoxicity against human XF498 cells by SRB staining assay; assay type: functional, cell-based
A549 [2] = experiment: Cytotoxicity against human A549 cells by SRB staining assay; assay type: functional, cell-based
SK-OV-3 = experiment: Cytotoxicity against human SK-OV-3 cells by SRB staining assay; assay type: functional, cell-based
HCT-15 = experiment: Cytotoxicity against human HCT-15 cells by SRB staining assay; assay type: functional, cell-based
SK-MEL-2 = experiment: Cytotoxicity against human SK-MEL-2 cells by SRB staining assay; assay type: functional, cell-based
UACC-62 = experiment: Cytotoxicity against human UACC-62 cells incubated for 48 hrs by sulforhodamine B staining based spectrophotometric assay; assay type: functional, cell-based; settings: UACC-62, 48 h
MCF7 [3] = experiment: Cytotoxicity against human MCF7 cells incubated for 48 hrs by sulforhodamine B staining based spectrophotometric assay; assay type: functional, cell-based; settings: MCF7, 48 h
A549 [4] = experiment: Antiproliferative activity against human A549 cells incubated for 48 hrs by MTT assay; assay type: functional, cell-based; settings: A549, 48 h
NCI-H1975 = experiment: Antiproliferative activity against human NCI-H1975 cells incubated for 48 hrs by MTT assay; assay type: functional, cell-based; settings: NCI-H1975, 48 h
P388 [5] = experiment: Cytotoxicity against mouse P388 cells incubated for 48 hrs by MTT assay; assay type: functional, cell-based; settings: P388, 48 h
HL-60 [6] = experiment: Antiproliferative activity against human HL-60 cells incubated for 24 hrs by MTT assay; assay type: functional, cell-based; settings: HL-60, 24 h
HL-60 [7] = experiment: Antiproliferative activity against human HL-60 cells; assay type: functional, cell-based
HT-29 [8] = experiment: Cytotoxicity against human HT-29 cells incubated for 48 hrs by MTT assay; assay type: functional, cell-based; settings: HT-29, 48 h
HCT-116 [9] = experiment: Cytotoxicity against human HCT-116 cells; assay type: functional, cell-based
MCF7 [10] = experiment: Antiproliferative activity against human MCF7 cells incubated for 48 hrs by SRB assay; assay type: functional, cell-based; settings: MCF7, 48 h
MDA-MB-231 [11] = experiment: Cytotoxicity against human MDA-MB-231 cells incubated for 48 hrs by MTT assay; assay type: functional, cell-based; settings: MDA-MB-231, 48 h
A2058 = experiment: Cytotoxicity against human A2058 cells incubated for 48 hrs by MTT assay; assay type: functional, cell-based; settings: A2058, 48 h
P388 [12] = experiment: Antiproliferative activity against mouse P388 cells; assay type: functional, cell-based
HT-29 [13] = experiment: Antiproliferative activity against human HT-29 cells; assay type: functional, cell-based
HeLa = experiment: Antiproliferative activity against human HeLa cells; assay type: functional, cell-based
HCT-116 [14] = experiment: Antiproliferative activity against human HCT-116 cells incubated for 72 hrs by WST-1 assay; assay type: functional, cell-based; settings: HCT-116, 72 h
MCF7 [15] = experiment: Cytotoxicity against human MCF-7 cells incubated for 72 hrs by MTT assay; assay type: functional, cell-based; settings: MCF7, 72 h
MDA-MB-231 [16] = experiment: Cytotoxicity against human MDA-MB-231 cells incubated for 72 hrs by MTT assay; assay type: functional, cell-based; settings: MDA-MB-231, 72 h
[17] = Inhibition of PAFR in New Zealand rabbit platelets assessed as reduction in PAF-induced platelet aggregation measured within 5 mins by aggregometry analysis; assay type: tissue-based; settings: Oryctolagus cuniculus
[18] = Inhibition of [3H]PAF-acether binding to PAFR in rabbit platelet plasma membranes incubated for 1 hr; assay type: cell membranes, Oryctolagus cuniculus, Cell membrane
[19] = Suppression of ZEB1 protein level in human T-24 cells incubated for 24 hrs by Western blot analysis; assay type: functional, cell-based; settings: T-24, 24 h
[20] = Antiproliferative activity against human OVCA429 cells incubated for 72 hrs by MTT assay; assay type: functional, cell-based; settings: OVCA429, 72 h
PANC-1 = experiment: Cytotoxicity against human Panc-1 cells incubated for 48 hrs by CCK8 assay; assay type: functional, cell-based; settings: PANC-1, 48 h
LNCaP = experiment: Cytotoxicity against human LNCAP cells incubated for 48 hrs clonogenic survival assay; assay type: functional, cell-based; settings: time 48 hrs, read-out: LD50 (the source's name)
CCRF S-180 = experiment: Cytotoxicity against mouse CCRF S-180 cells incubated for 48 hrs by sulforhodamine B staining based ELISA; assay type: functional, cell-based; settings: CCRF S-180, 48 h
[21] = Cytotoxicity against human TSU-Pr1 cells incubated for 2 hrs; assay type: functional, cell-based; settings: TSU-Pr1, 2 h
[22] = target: Sarcoplasmic/endoplasmic reticulum calcium ATPase 1 (Oryctolagus cuniculus, UniProt P04191); experiment: Inhibition of rabbit skeletal muscle SERCA1 assessed as reduction in calcium uptake preincubated for 10 mins followed by ATP addition and measured after 4 mins by scintillation liquid method
MCF7 [23] = experiment: Cytotoxicity against human MCF7 cells incubated for 48 hrs by sulforhodamine B staining based ELISA; assay type: functional, cell-based; settings: MCF7, 48 h
EL4 = experiment: Cytotoxicity against mouse EL4 cells incubated for 48 hrs by sulforhodamine B staining based ELISA; assay type: functional, cell-based; settings: EL4, 48 h
HCT-116 [24] = experiment: Cytotoxicity against human HCT-116 cells by MTT assay; assay type: functional, cell-based
BGC-823 = experiment: Cytotoxicity against human BGC-823 cells by MTT assay; assay type: functional, cell-based
HepG2 = experiment: Cytotoxicity against human HepG2 cells by MTT assay; assay type: functional, cell-based

Chain of Sarcoplasmic/endoplasmic reticulum calcium ATPase 1 (P04191 whole entry): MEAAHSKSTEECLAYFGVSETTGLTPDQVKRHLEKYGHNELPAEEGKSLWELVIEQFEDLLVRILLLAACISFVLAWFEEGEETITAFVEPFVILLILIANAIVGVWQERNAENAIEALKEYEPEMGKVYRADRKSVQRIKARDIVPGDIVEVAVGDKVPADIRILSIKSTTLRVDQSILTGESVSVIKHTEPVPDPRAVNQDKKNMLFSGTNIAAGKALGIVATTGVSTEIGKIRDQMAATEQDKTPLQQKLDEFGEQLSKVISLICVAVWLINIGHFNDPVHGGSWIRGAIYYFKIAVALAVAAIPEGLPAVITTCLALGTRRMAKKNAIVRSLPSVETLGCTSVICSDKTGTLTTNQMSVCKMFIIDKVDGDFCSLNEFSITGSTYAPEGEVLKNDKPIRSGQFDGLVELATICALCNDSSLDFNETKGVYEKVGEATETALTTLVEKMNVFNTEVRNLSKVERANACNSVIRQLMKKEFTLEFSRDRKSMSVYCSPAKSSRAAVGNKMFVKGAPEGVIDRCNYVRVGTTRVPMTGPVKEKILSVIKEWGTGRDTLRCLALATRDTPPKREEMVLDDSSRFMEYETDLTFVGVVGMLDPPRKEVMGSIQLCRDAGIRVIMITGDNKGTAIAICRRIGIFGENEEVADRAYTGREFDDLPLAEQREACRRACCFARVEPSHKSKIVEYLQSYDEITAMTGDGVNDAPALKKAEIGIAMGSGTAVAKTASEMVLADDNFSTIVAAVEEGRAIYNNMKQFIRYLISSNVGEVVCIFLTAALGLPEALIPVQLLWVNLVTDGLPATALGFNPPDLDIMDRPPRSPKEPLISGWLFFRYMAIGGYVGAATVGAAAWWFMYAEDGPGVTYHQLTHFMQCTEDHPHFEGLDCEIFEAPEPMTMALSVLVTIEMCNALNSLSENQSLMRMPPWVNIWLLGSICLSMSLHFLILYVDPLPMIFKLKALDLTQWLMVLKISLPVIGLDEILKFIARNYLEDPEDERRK

- IC50 (MCF7 [1]): 3200 nM
- IC50 (SW480): 60000 nM
- IC50 (MDA-MB-435): 10000 nM
SMILES: CC1(C)OC(=O)C=C[C@]2(C)[C@H]3CC[C@@](C)([C@@H](O[C@H]4O[C@H](CO)[C@@H](O)[C@H](O)[C@H]4O)c4ccoc4)[C@@]4(O[C@@H]4C(=O)O)[C@]3(C)C(=O)C[C@@H]12

SMILES: CC(=O)OC1C(=O)[C@@H]2[C@@]34COC(O)[C@@](C)([C@H](OC(C)=O)C[C@@H]3O)[C@@H]4C[C@@H](O)[C@@]2(C)[C@@]23O[C@@H]2C[C@@H](c2ccoc2)[C@]13C (some centres not stated)
- IC50 (XF498): 12 nM
- IC50 (A549 [2]): 17 nM
- IC50 (SK-OV-3): 35 nM
- IC50 (HCT-15): 70 nM
- IC50 (SK-MEL-2): 1.2 nM

SMILES: CC(=O)O[C@H]1C=C2C(=O)C3=C(C)C(=O)O[C@@H]3C[C@H]2[C@]2(C)CCCC(C)(C)[C@@H]12
- IC50 (UACC-62): 80 nM
- IC50 (MCF7 [3]): 130 nM

- IC50 (A549 [4]): 5200 nM
- IC50 (NCI-H1975): 3600 nM
SMILES: CC(C)[C@H]1OC(=O)C=C2[C@@]13O[C@@H]3[C@H]1OC(=O)[C@@]3(C)[C@@H](O)CC[C@@]2(C)[C@@H]13
- IC50 (P388 [5]): 720 nM

- IC50 (HL-60 [6]): 2400 nM
- IC50 (HL-60 [7]): 7000 nM
- IC50 (MCF7 [10]): 15000 nM
- IC50 (P388 [12]): 2900 nM
SMILES: C=C1CC[C@@H]2[C@](C)(CO)[C@H](O)CC[C@@]2(C)[C@@H]1C/C=C1/C(=O)OC[C@H]1O [ANDROGRAPHOLIDE]
- IC50 (HT-29 [8]): > 30000 nM
- IC50 (HCT-116 [9]): > 40000 nM
- IC50 (MDA-MB-231 [11]): > 30000 nM
- IC50 (A2058): 26000 nM

SMILES: COC(=O)[C@@]12OC[C@]34[C@H]([C@@H](O)[C@@H]1O)[C@@]1(C)CC(=O)C(O)=C(C)[C@@H]1C[C@H]3OC(=O)[C@H](OC(=O)/C=C(\C)C(C)C)[C@@H]24 [BRUCEANTIN]
- IC50 (HT-29 [13]): 22 nM
- IC50 (HeLa): 29 nM

- IC50 (HCT-116 [14]): 82 nM
- IC50 (HT-29 [13]): 3100 nM
- IC50 (HL-60 [7]): 130 nM
- IC50 (HeLa): 1100 nM
SMILES: COC(=O)[C@@]12OC[C@]34[C@H]([C@@H](O)[C@@H]1O)[C@@]1(C)CC(=O)C(O)=C(C)[C@@H]1C[C@H]3OC(=O)[C@H](OC(=O)CC(C)C)[C@@H]24 [BRUCEINE A]
- IC50 (MCF7 [15]): 180 nM
- IC50 (MDA-MB-231 [16]): 230 nM

- IC50 [17]: 130 nM
- IC50 [18]: 250 nM
- IC50 [19]: 500 nM
SMILES: C[C@@H]1C(=O)O[C@H]2[C@H](O)[C@@]34[C@H]5C[C@@H](C(C)(C)C)[C@]36[C@@H](OC(=O)[C@@H]6O)O[C@@]4(C(=O)O5)[C@@]12O [GINKOLIDE B]
- IC50 [20]: > 50000 nM

SMILES: CC(C)[C@]12O[C@H]1[C@@H]1O[C@]13[C@]1(O[C@H]1C[C@H]1C4=C(CC[C@@]13C)C(=O)OC4)[C@@H]2OCOP(=O)(O)O [MINNELIDE]
- IC50 (PANC-1): 200 nM

- IC50 (MCF7 [1]): 20 nM
- IC50 (SW480): 56000 nM
- IC50 (MDA-MB-435): 6800 nM
SMILES: CC1(C)OC(=O)C=C[C@]2(C)[C@H]3CC[C@@]4(C)[C@H](c5ccoc5)OC(=O)[C@H]5O[C@]54[C@]3(C)C(=O)C[C@@H]12 [OBACUNONE]

SMILES: C/C=C(/C)C(=O)O[C@H]1C(C)=C2[C@H]([C@@H]1OC(=O)CCCCCCC)[C@@](C)(OC(C)=O)C[C@H](OC(=O)CCC)[C@@]1(O)[C@H]2OC(=O)[C@@]1(C)O [THAPSIGARGIN]
- CC50 (LNCaP): 10 nM
- IC50 (CCRF S-180): 30 nM
- IC50 [21]: 30 nM
- IC50 [22]: 3.9 nM
- IC50 (MCF7 [23]): 2300 nM
- IC50 (EL4): 100 nM

SMILES: CC(C)[C@]12O[C@H]1[C@@H]1O[C@]13[C@]1(O[C@H]1C[C@H]1C4=C(C(=O)OC4)[C@@H](O)C[C@@]13C)[C@@H]2O [TRIPDIOLIDE]
- IC50 (HCT-116 [24]): 730 nM
- IC50 (BGC-823): 910 nM
- IC50 (HepG2): 1700 nM

SMILES: CC(C)[C@]12O[C@H]1[C@@H]1O[C@]13[C@]1(O[C@H]1C[C@H]1C4=C(CC[C@@]13C)C(=O)OC4)[C@@H]2O [TRIPTOLIDE]
- IC50 (PANC-1): 200 nM
